Marks after values point to notes of the source that are not given here.
Assays:
Details in all cases: mean ± SD
[1] = system: plasma protein; assay: Plasma protein binding ratio (PPBR) by ultrafiltration, largemouth bass plasma; assay type: in vitro ADME, largemouth bass (Micropterus salmoides)
Protocol: (§1) The detailed procedures and the pretreatment of the ultrafiltration unit (UFU) were in line with the previous reports. In brief, the nonspecific absorption (NSB) of UFU was first checked before and after pretreatment of 5% Tween 80. […] Firstly, 100 μL of the sample was used to evaluate the initial concentration before centrifugation. […] To reduce the NSB of UFU, 100 μL of 5% Tween 80 was used to treat UFU at 25 °C for 5 min, and 0.5 mL of physiological saline was used to wash off Tween 80. The NSB of UFU was repeatedly determined again in light of the above-mentioned method.
(§2) The samples of sterile physiological saline were detected without extraction by HPLC. As for the samples of plasma, 0.1 mL of plasma was decanted into a 10 mL centrifugation tube. The extraction method is the same as the reported literature.
(§3) The proportion of the mobile phase was 82:18 (water containing 0.2% formic acid and pure acetonitrile, v/v), following the flow rate of 0.8 mL/min. The excitation wavelength was 280 nm. The emission wavelength was 450 nm.

[2] = system: plasma protein; assay: Plasma protein binding ratio (PPBR) by ultrafiltration, grass carp plasma; assay type: in vitro ADME, grass carp (Ctenopharyngodon idella)
Protocol: as §1, §2, §3

[3] = system: plasma protein; assay: Plasma protein binding ratio (PPBR) by ultrafiltration, yellow catfish plasma; assay type: in vitro ADME, yellow catfish (Pelteobagrus fulvidraco)
Protocol: as §1, §2, §3

[4] = 1 μg/mL, 15 °C, n = 3, listed as EF
[5] = 5 μg/mL, 15 °C, n = 3, listed as Enrofloxacin
[6] = 5 μg/mL, 20 °C, n = 3, listed as Enrofloxacin
[7] = 10 μg/mL, 15 °C, n = 3, listed as EF
[8] = 10 μg/mL, 15 °C, n = 3, listed as Enrofloxacin
[9] = 10 μg/mL, 20 °C, n = 3, listed as Enrofloxacin
[10] = 10 μg/mL, 25 °C, n = 3, listed as Enrofloxacin
[11] = 1 μg/mL, 25 °C, n = 3, listed as Enrofloxacin
[12] = 5 μg/mL, 25 °C, n = 3, listed as Enrofloxacin

SMILES: CCN1CCN(c2cc3c(cc2F)c(=O)c(C(=O)O)cn3C2CC2)CC1 [Enrofloxacin (EF), Enrofloxacin]
- PPBRs (%) ([1]; 1 μg/mL, 15 °C, n = 3): 35.11 ± 5.18 ^a %
- PPBRs (%) [1, 4]: 35.11%
- PPBRs (%) ([1]; 1 μg/mL, 20 °C, n = 3): 37.93 ± 6.11 ^a %
- PPBRs (%) ([1]; 1 μg/mL, 25 °C, n = 3): 39.12 ± 1.72 ^a %
- PPBRs (%) ([1]; 5 μg/mL, 15 °C, n = 3): 14.39 ± 0.61 ^b %
- PPBRs (%) [1, 5]: 14.39 ± 0.61 ^a %
- PPBRs (%) ([1]; 5 μg/mL, 20 °C, n = 3): 17.46 ± 2.82 ^b %
- PPBRs (%) [1, 6]: 17.46 ± 2.82 ^ab %
- PPBRs (%) ([1]; 5 μg/mL, 25 °C, n = 3): 23.20 ± 5.87 ^b %
- PPBRs (%) ([1]; 10 μg/mL, 15 °C, n = 3): 9.30 ± 5.15 ^C %
- PPBRs (%) [1, 7]: 9.30%
- PPBRs (%) [1, 8]: 9.30 ± 5.15 ^a %
- PPBRs (%) ([1]; 10 μg/mL, 20 °C, n = 3): 10.84 ± 1.08 ^C %
- PPBRs (%) [1, 9]: 10.84 ± 1.08 ^a %
- PPBRs (%) ([1]; 10 μg/mL, 25 °C, n = 3): 7.77 ± 2.10 ^C %
- PPBRs (%) [1, 10]: 7.77 ± 2.10 ^a %
- PPBRs (%) ([2]; 1 μg/mL, 15 °C, n = 3): 60.52 ± 0.99 ^a %
- PPBRs (%) [2, 4]: 60.52%
- PPBRs (%) ([2]; 1 μg/mL, 20 °C, n = 3): 51.27 ± 1.56 ^a %
- PPBRs (%) ([2]; 1 μg/mL, 20 °C, n = 3, listed as Enrofloxacin): 51.27 ± 1.56 ^b %
- PPBRs (%) ([2]; 1 μg/mL, 25 °C, n = 3): 50.09 ± 2.06 ^a %
- PPBRs (%) [2, 11]: 50.09 ± 2.06 ^b %
- PPBRs (%) ([2]; 5 μg/mL, 15 °C, n = 3): 33.77 ± 0.07 ^B %
- PPBRs (%) [2, 5]: 33.77 ± 0.07 ^a %
- PPBRs (%) ([2]; 5 μg/mL, 20 °C, n = 3): 22.07 ± 1.19 ^B %
- PPBRs (%) ([2]; 5 μg/mL, 25 °C, n = 3): 23.36 ± 3.86 ^B %
- PPBRs (%) [2, 12]: 23.36 ± 3.86 ^a %
- PPBRs (%) ([2]; 10 μg/mL, 15 °C, n = 3): 16.95 ± 1.81 ^C %
- PPBRs (%) [2, 7]: 16.95%
- PPBRs (%) [2, 8]: 16.95 ± 1.81 ^a %
- PPBRs (%) ([2]; 10 μg/mL, 20 °C, n = 3): 8.34 ± 2.29 ^C %
- PPBRs (%) [2, 9]: 8.34 ± 2.29 ^b %
- PPBRs (%) ([2]; 10 μg/mL, 25 °C, n = 3): 5.52 ± 1.99 ^C %
- PPBRs (%) [2, 10]: 5.52 ± 1.99 ^B %
- PPBRs (%) ([3]; 1 μg/mL, 20 °C, n = 3): 46.10 ± 3.13 ^a %
- PPBRs (%) ([3]; 1 μg/mL, 20 °C, n = 3, listed as EF): 46.10%
- PPBRs (%) ([3]; 1 μg/mL, 25 °C, n = 3): 43.90 ± 3.62 ^a %
- PPBRs (%) ([3]; 1 μg/mL, 25 °C, n = 3, listed as EF): 43.9%
- PPBRs (%) [3, 11]: 43.90 ± 3.62 ^ab %
- PPBRs (%) ([3]; 5 μg/mL, 15 °C, n = 3): 22.53 ± 6.86 ^b %
- PPBRs (%) ([3]; 5 μg/mL, 15 °C, n = 3, listed as EF): 22.53%
- PPBRs (%) [3, 5]: 22.53 ± 6.86 ^a %
- PPBRs (%) ([3]; 5 μg/mL, 20 °C, n = 3): 21.24 ± 6.93 ^b %
- PPBRs (%) [3, 6]: 21.24 ± 6.93 ^a %
- PPBRs (%) ([3]; 5 μg/mL, 25 °C, n = 3): 17.29 ± 0.69 ^b %
- PPBRs (%) ([3]; 5 μg/mL, 25 °C, n = 3, listed as EF): 17.29%
- PPBRs (%) [3, 12]: 17.29 ± 0.69 ^a %
- PPBRs (%) ([3]; 10 μg/mL, 15 °C, n = 3): 9.66 ± 4.09 ^c %
- PPBRs (%) [3, 7]: 9.66%
- PPBRs (%) [3, 8]: 9.66 ± 4.09 ^ab %
- PPBRs (%) ([3]; 10 μg/mL, 20 °C, n = 3): 13.52 ± 4.74 ^b %
- PPBRs (%) ([3]; 10 μg/mL, 20 °C, n = 3, listed as EF): 13.52%
- PPBRs (%) [3, 9]: 13.52 ± 4.74 ^a %
- PPBRs (%) ([3]; 10 μg/mL, 25 °C, n = 3): 4.36 ± 0.58 ^c %
- PPBRs (%) ([3]; 10 μg/mL, 25 °C, n = 3, listed as EF): 4.36%
- PPBRs (%) [3, 10]: 4.36 ± 0.58 ^b %

Source: article PMC10251843 (Animals : an Open Access Journal from MDPI, 2023)
